{"source": "patent US3995028A", "about": "“Antibiotic OS-3256-B” (The Kitasato Institute, priority 1975, dated 1976)", "origin": "cited, not measured here", "tested_on": "animal tumors such as leukemia L-1210, Sarcoma-180 and Hela cells"}
{"smiles": "C[C@H](N)C(=O)N[C@@H](CCC(=O)C=[N+]=[N-])C(=O)N[C@@H](CCC(=O)C=[N+]=[N-])C(=O)O", "note": "[Alazopeptin, L-alanyl-(6-diazo-5-oxo)-L-norleucyl-(6-diazo-5-oxo)-L-norleucine]", "values": [{"measurement": "inhibitory activity against animal tumors", "value": "inhibitory activity against animal tumors"}]}
